From ChEMBL document CHEMBL1121442, “Synthesis and antitrypanosomal activity of some bis(4-guanylphenyl) five- and six-membered ring heterocycles” (1980)

How the values were obtained:
Mus musculus [1] = assay: Tested for antiTrypanosomal activity against Trypanosoma rhodesiense in mice at dose of 212 mg/kg expressed as mean survival time (MST) or cures; assay type: functional
Mus musculus [2] = assay: Tested for antiTrypanosomal activity against Trypanosoma rhodesiense in mice at dose of 6.6 mg/kg expressed as mean survival time (MST) or cures; assay type: functional
Mus musculus [3] = assay: Tested for antiTrypanosomal activity against Trypanosoma rhodesiense in mice at dose of 13.3 mg/kg expressed as mean survival time (MST) or cures; assay type: functional
Mus musculus [4] = assay: Tested for antitrypanosomal activity against trypanosoma rhodesiense in mice at dose of 53 mg/kg expressed as mean survival time (MST) or cures; assay type: functional
Mus musculus [5] = assay: Tested for antiTrypanosomal activity against Trypanosoma rhodesiense in mice at dose of 3.3 mg/kg expressed as mean survival time (MST) or cures; assay type: functional
Mus musculus [6] = assay: Tested for antiTrypanosomal activity against Trypanosoma rhodesiense in mice at dose of 26.5 mg/kg expressed as mean survival time (MST) or cures; assay type: functional
Mus musculus [7] = assay: Tested for antiTrypanosomal activity against Trypanosoma rhodesiense in mice at dose of 1.25 mg/kg expressed as mean survival time (MST) or cures; assay type: functional
Mus musculus [8] = assay: Tested for antitrypanosomal activity against trypanosoma rhodesiense in mice at dose of 424 mg/kg expressed as mean survival time (MST) or cures; assay type: functional
Mus musculus [9] = assay: Tested for antiTrypanosomal activity against Trypanosoma rhodesiense in mice at dose of 106 mg/kg expressed as mean survival time (MST) or cures; assay type: functional
Mus musculus [10] = assay: Tested for antiTrypanosomal activity against Trypanosoma rhodesiense in mice at dose of 40 mg/kg expressed as mean survival time (MST) or cures; assay type: functional
Mus musculus [11] = assay: Tested for antiTrypanosomal activity against Trypanosoma rhodesiense in mice at dose of 160 mg/kg expressed as mean survival time (MST) or cures; assay type: functional
Mus musculus [12] = assay: Tested for antiTrypanosomal activity against Trypanosoma rhodesiense in mice at dose of 20 mg/kg expressed as mean survival time (MST) or cures; assay type: functional
Mus musculus [13] = assay: Tested for antiTrypanosomal activity against Trypanosoma rhodesiense in mice at dose of 80 mg/kg expressed as mean survival time (MST) or cures; assay type: functional
Mus musculus [14] = assay: Tested for antiTrypanosomal activity against Trypanosoma rhodesiense in mice at dose of 640 mg/kg expressed as mean survival time (MST) or cures; assay type: functional
Mus musculus [15] = assay: Tested for antiTrypanosomal activity against Trypanosoma rhodesiense in mice at dose of 10 mg/kg expressed as mean survival time (MST) or cures; assay type: functional
Mus musculus [16] = assay: Tested for antiTrypanosomal activity against Trypanosoma rhodesiense in mice at dose of 320 mg/kg expressed as mean survival time (MST) or cures; assay type: functional
Mus musculus [17] = assay: Tested for antiTrypanosomal activity against Trypanosoma rhodesiense in mice at dose of 2.5 mg/kg expressed as mean survival time (MST) or cures; assay type: functional
Mus musculus [18] = assay: Tested for antiTrypanosomal activity against Trypanosoma rhodesiense in mice at dose of 5 mg/kg expressed as mean survival time (MST) or cures; assay type: functional
Mus musculus [19] = assay: Tested for antiTrypanosomal activity against Trypanosoma rhodesiense in mice at dose of 424 mg/kg expressed as mean survival time (MST) or cures T - toxic death; assay type: functional, organism-based; parameters: dose 424 mg/kg
Mus musculus [20] = assay: Tested for antiTrypanosomal activity against Trypanosoma rhodesiense in mice at dose of 26.5 mg/kg expressed as mean survival time (MST) or cures T - toxic death; assay type: functional, organism-based; parameters: dose 26.5 mg/kg
Mus musculus [21] = assay: Tested for antiTrypanosomal activity against Trypanosoma rhodesiense in mice at dose of 106 mg/kg expressed as mean survival time (MST) or cures T - toxic death; assay type: functional, organism-based; parameters: dose 106 mg/kg
Mus musculus [22] = assay: Tested for antiTrypanosomal activity against Trypanosoma rhodesiense in mice at dose of 53 mg/kg expressed as mean survival time (MST) or cures; assay type: functional
Mus musculus [23] = assay: Tested for antiTrypanosomal activity by screening against Trypanosoma rhodesiense in mice at dose of 424 mg/kg expressed as mean survival time (MST) or cures T - toxic death; assay type: functional, organism-based; parameters: dose 424 mg/kg
Mus musculus [24] = assay: Tested for antiTrypanosomal activity against Trypanosoma rhodesiense in mice at dose of 640 mg/kg expressed as mean survival time (MST) or cures, T - toxic death; assay type: functional, organism-based; parameters: dose 640 mg/kg
Mus musculus [25] = assay: Tested for antiTrypanosomal activity against Trypanosoma rhodesiense in mice at dose of 320 mg/kg expressed as mean survival time (MST) or cures T - toxic death; assay type: functional, organism-based; parameters: dose 320 mg/kg
Mus musculus [26] = assay: Tested for antiTrypanosomal activity against Trypanosoma rhodesiense in mice at dose of 160 mg/kg expressed as mean survival time (MST) or cures T - toxic death; assay type: functional, organism-based; parameters: dose 160 mg/kg

| Structure (SMILES) | Cures (Mus musculus [10]) | Cures (Mus musculus [11]) | Cures (Mus musculus [12]) | Cures (Mus musculus [13]) | Cures (Mus musculus [14]) | Cures (Mus musculus [15]) | Cures (Mus musculus [16]) | Cures (Mus musculus [17]) | Cures (Mus musculus [18]) | other results |
| --- | --- | --- | --- | --- | --- | --- | --- | --- | --- | --- |
| Cl.Cl.N=C(N)c1ccc(-c2nnc(-c3ccc(C(=N)N)cc3)s2)cc1 | – | – | – | – | – | – | – | – | – | Cures (Mus musculus [1]): 5; Cures (Mus musculus [2]): 4; Cures (Mus musculus [3]): 5; Cures (Mus musculus [4]): 5; Cures (Mus musculus [5]): 3; Cures (Mus musculus [6]): 5; Delta MST (Mus musculus [7]): 2 days; Cures (Mus musculus [8]): 2; Cures (Mus musculus [9]): 5 |
| N=C(Nc1ccc(NC(=N)c2ccccc2)o1)c1ccccc1 | 5 | 5 | 5 | 5 | 5 | 5 | 5 | 4 | 5 | Cures (Mus musculus [7]): 4 |
| Cl.Cl.c1cc(-c2ccc(-c3ccc(C4=NCCN4)cc3)nn2)ccc1C1=NCCN1 | – | 3 | – | 1 | – | – | 5 | – | – | Delta MST (Mus musculus [10]): 1.1 days; Delta MST (Mus musculus [12]): 1.1 days; Delta MST (Mus musculus [15]): 0.3 days |
| Cl.Cl.c1cc(-c2nnc(-c3ccc(C4=NCCCN4)cc3)s2)ccc1C1=NCCCN1 | – | – | – | – | – | – | – | – | – | Delta MST (Mus musculus [10]): 1.1 days; Delta MST (Mus musculus [19]): Toxic death; Delta MST (Mus musculus [20]): Toxic death; Delta MST (Mus musculus [21]): Toxic death |
| N=C(N)c1ccc(OCCCCCOc2ccc(C(=N)N)cc2)cc1 [PENTAMIDINE] | 5 | 5 | 5 | 5 | 5 | 5 | 5 | 4 | 5 | Cures (Mus musculus [7]): 1 |
| CC1CNC(c2ccc(-c3cnc(-c4ccc(C5=NC(C)CN5)cc4)o3)cc2)=N1.Cl.Cl (configuration not stated) | – | – | – | – | – | – | – | – | – | Delta MST (Mus musculus [1]): 6.8 days; Delta MST (Mus musculus [22]): 2.4 days; Delta MST (Mus musculus [23]): Toxic death; Delta MST (Mus musculus [3]): 1 days; Delta MST (Mus musculus [6]): 2.2 days; Delta MST (Mus musculus [9]): 5.2 days |
| Cl.Cl.N=C(N)c1ccc(-c2nnc(-c3ccc(C(=N)N)cc3)o2)cc1 | – | – | – | – | – | – | – | – | – | Delta MST (Mus musculus [10]): 0.8 days; Delta MST (Mus musculus [11]): 0.8 days; Delta MST (Mus musculus [24]): Toxic death |
| Cl.Cl.N=C(N)c1ccc(-c2cnc(-c3ccc(C(=N)N)cc3)o2)cc1 | 5 | 5 | 5 | 5 | 5 | 5 | 5 | 3 | 5 | Delta MST (Mus musculus [7]): 1.8 days |
| Cl.Cl.c1cc(-c2nnc(-c3ccc(C4=NCCN4)cc3)o2)ccc1C1=NCCN1 | – | – | – | – | – | – | – | – | – | Delta MST (Mus musculus [10]): 0.8 days; Delta MST (Mus musculus [11]): 1 days; Delta MST (Mus musculus [24]): Toxic death |
| Cl.Cl.c1cc(-c2nnc(-c3ccc(C4=NCCCN4)cc3)o2)ccc1C1=NCCCN1 | – | – | – | – | – | – | – | – | – | Delta MST (Mus musculus [19]): Toxic death; Delta MST (Mus musculus [2]): 1.3 days; Cures (Mus musculus [3]): 1; Cures (Mus musculus [6]): 5; Delta MST (Mus musculus [21]): Toxic death |
| CC1CNC(c2ccc(-c3nnc(-c4ccc(C5=NC(C)CN5)cc4)o3)cc2)=N1 (configuration not stated) | – | – | – | – | – | – | – | – | – | Delta MST (Mus musculus [19]): Toxic death; Delta MST (Mus musculus [20]): Toxic death; Delta MST (Mus musculus [21]): Toxic death |
| Cl.Cl.c1cc(-c2ccc(-c3ccc(C4=NCCCN4)cc3)nn2)ccc1C1=NCCCN1 | 4 | – | 4 | 1 | – | 1 | – | – | – | Delta MST (Mus musculus [21]): Toxic death |
| N=C(N)c1ccc(/C=C/c2ccc(C(=N)N)cc2)cc1 [STILBAMIDINE] | 5 | 5 | 5 | 5 | 5 | 5 | 5 | 5 | 5 | Cures (Mus musculus [7]): 2 |
| N=C(N)c1ccc(/C=C/c2ccc(C(=N)N)cc2O)cc1 [HYDROXYSTILBAMIDINE] | 5 | 5 | 5 | 5 | 5 | 5 | 5 | 5 | 5 | Cures (Mus musculus [7]): 2 |
| Cl.Cl.c1cc(-c2cnc(-c3ccc(C4=NCCCN4)cc3)o2)ccc1C1=NCCCN1 | 5 | – | 5 | 2 | – | 5 | – | 3 | 3 | Delta MST (Mus musculus [24]): Toxic death; Delta MST (Mus musculus [25]): Toxic death; Delta MST (Mus musculus [7]): 2.7 days; Delta MST (Mus musculus [26]): Toxic death |
| Cl.Cl.c1cc(-c2cnc(-c3ccc(C4=NCCN4)cc3)o2)ccc1C1=NCCN1 | – | – | – | – | – | – | – | – | – | Delta MST (Mus musculus [6]): 0.2 days; Delta MST (Mus musculus [8]): 1.6 days; Delta MST (Mus musculus [9]): 0.4 days |
